This is an account of results in patent publication US20210108199A1, “Treatment for aggressive cancers by targeting C9ORF72” (The Trustees of Columbia University in the City of New York, priority 2017, published 2021).

The test system of data set [1] is EGF mRNA. In words: qRT-PCR of EGF mRNA. It counts as cell-based. The note with it: U87 cells. The procedure: (§1) For most RNA experiments, RNA was isolated from cells using the Qiagen™ RNeasy minikit. Complementary DNA was generated using the Qiagen™ Quantitect™ reverse transcription kit with 0.5 μg of input RNA as measured with a NanoDrop spectrophotometer (Thermo Scientific™). Real-time PCR was carried out on an ABI StepOne Plus™ machine using power SYBR Green dye (Thermo Scientific™). Transcript levels were assayed in triplicate and normalized to RPL32 and HPS90 mRNAs. Relative changes in cDNA levels were calculated using the comparative Ct method (ΔΔCT method). All RT-qPCR primers were designed with Primer3Plus™ or retrieved from Primerbank™. Primer sequences are listed here, including in Table 3. All primers were purchased from Life Technologies™. H. Generation of p53 Knock Out U87 Cell Lines by CRISPR
How C9 levels affect EGF signaling was investigated. […] Furthermore, after 48 and 72 hours, the reduction of EGF mRNA levels was about 97%. See FIG. 39, which presents data from qRT-PCR analysis, showing mRNA levels of C9ORF72 and EGF in U87 cells treated with control or C9 siRNA for 24, 48 and 72 hours (represented as fold change). Statistical significance was assessed by an unpaired t-test: NS P>0.05, *P≤0.05, **P≤0.01, ***P≤0.001 ****P 0.0001.

For data set [2], the system named is U87 p53 null KO #4 cells. In words: Vacuoles in p53 null cells transfected with HA tagged wtp53. It counts as cell-based. The note with it: U87 p53 null KO #4 cells transfected with HA tagged wtp53. As to the method:
To provide further evidence of p53 involvement in vacuolization, it was tested whether p53 transfection into p53 null cell lines in C9 KD background induced accumulation of vacuoles. […] In FIG. 36A, phase contrast images (40×) are shown of U87 p53 null KO #4 cells that were transfected with HA tagged wtp53 and then treated with control (siCtrl) or C9 (siC9; SEQ ID NO:631) siRNA. The black boxes show the location of the zoomed in images below with black arrows pointing to vacuoles. […] FIG. 36C is a graph that presents quantitation of data from about 100 cells, indicating the number of vacuoles per cell for conditions described above. Statistical significance was assessed by unpaired t-test: NS P>0.05, *P≤0.05, **P≤0.01, ***P≤0.001 ****P≤0.0001.

The test system of data set [3] is U2OS cells. The data set is described as follows: Western blot of U2OS cells after C9 KD. The class given is cell-based, human. The procedure:
(§2) For Western blot analysis, cells were lysed with lysis buffer (20 mM sodium phosphate (pH 7.0), 250 mM NaCl, 30 mM sodium pyrophosphate, 0.1% Nonidet™ P-40, 5 mM EDTA, 10 mM NaF, 0.1 mM Na3VO4, and 1 mM PMSF) supplemented with complete protease inhibitors (Roche™) and homogenized by passage through a 28 gauge needle. Protein concentration was measured with a Bio-Rad™ protein assay dye reagent and results were read using a spectrophotometer (BiophotometerPlus™ by Eppendorf™). Protein extracts were resolved by SDS PAGE on gradient (Thermo Fisher™) or 12% gels. Proteins were then electrotransferred at 350 mA for 80 minutes onto a PVDF membrane (Immobilon-P PVDF). Membranes were blocked with PBST with 5% milk and 1% BSA for 30 minutes. Quantitation of blots was performed Image Studio Lite software (LI-COR Biosciences™).
See FIG. 28, a WB of U2OS cells treated with control and C9 siRNA and probed for PARP1, p-p53 (s15), p53, p-ERK, p21, p-H2AX, using actin as a loading control.

The test system of data set [4] is LAMP1. In words: LAMP1 western blot. It counts as cell-based. Particulars: U87 cells. The procedure:
as §2
To this end, C9 was knocked down in U87 cells and employed a fluorescent autophagy marker ptfLC3 to mark autophagosomes and autophagolysosomes. […] The white arrows show vacuoles and the white box represents a zoom in of the cell area with vacuoles. […] The white box here represents a zoom in of the cell area with vacuoles, nuclei stained with DAPI (blue). FIG. 4B is a WB showing LAMP1 levels after control (siCtrl) and C9 KD (siC9; SEQ ID NO:631).

The test system of data set [5] is PARP1 mRNA. In words: qRT-PCR of PARP1 mRNA. Particulars: U87 cells. It counts as cell-based. The procedure: as §1
Statistical significance was assessed by an unpaired t-test: NS P>0.05, *P≤0.05, **P≤0.01, ***P≤0.001 ****P≤0.0001.

For data set [6], the system named is p53 null U87 cells. In words: qRT-PCR in p53 null U87 KO #4 cells. The class given is cell-based. As to the method:
as §1
See FIG. 32, which presents RT-qPCR analysis of C9ORF72, CDKN1A (p21), PUMA, MDM2 and PARP1 mRNA levels in U87 KO #4 cells treated with control (siCtrl) and C9 (siC9; SEQ ID NO:631) siRNA. These experiments were performed in three biological replicates (n=3) and error bars represent S.E.M. Statistical significance was assessed by unpaired t-test: NS P>0.05, *P≤0.05, **P≤0.01, ***P≤0.001 ****P≤0.0001.

In data set [7] the test system is HeLa cells. The data set is described as follows: Mitochondrial live imaging in HeLa cells. The class given is cell-based. The note with it: vs control. The procedure:
Mitochondrial accumulation then was investigated in other cell lines. C9 KD was performed in HeLa cells, followed by a fluorescent mitochondrial dye for live imaging. […] To study the mitochondrial dysfunction phenotype upon C9 KD in a non-cancer cell line, C9 was knocked down in rat-derived cortical neurons in combination with a mitochondrial stain.

The test system of data set [8] is RAS/RAC1 signaling pathway. In words: Western blot of RAS, RAC1 and phospho-ERK. Particulars: U87 cells. The class given is cell-based. The procedure:
as §2
Macropinocytosis is reported to be dependent on RAS and/or RAC1 activation, therefore whether the RAS/RAC1 signaling pathway is activated upon C9 KD was explored. First, RAS and RAC1 protein levels were measured in U87 cells upon C9 KD. […] If the RAS/RAC1 pathway is active, then ERK1/2 phosphorylation should be observed. FIG. 14 is a WB of U87 cells treated with control (siCtrl) and C9 siRNA (siC9; SEQ ID NO:631) measuring protein levels of RAS and phospho-ERK and loading control actin (left) and a WB showing RAC1 levels under the same conditions with actin as loading control (right). […] Therefore both macropinocytosis and RAS/RAC1 signaling pathways are a possible therapeutic targets in C9 ALS.

“siC9: siRNA targeting C9 mRNA: UUAAUGAAACAAUAAUCACUC (SEQ ID NO:631; sense) and GUGAUUAUUGUUUCAUUAAUC (SEQ ID NO:632; antisense) (listed as RNA, chemistry not given here)”: the “reduction of EGF mRNA levels” value in data set [1] (24 hours after C9 KD) is 50%. The “reduction of EGF mRNA levels” value in data set [1] (48 hours) is “about 97%”. Also, the “reduction of EGF mRNA levels” value in data set [1] (72 hours) is listed as “about 97%”. The vacuoles per cell entry in data set [2] is reported as “significant increase”. Also, in data set [3], the CDKN1A/p21 protein levels entry was “increase in CDKN1A/p21 protein levels”, the PARP1 level result is listed as “PARP1 downregulation”, the p53 levels result is on record as “increased p53 levels” and the p-ERK entry is on record as “increases in p-ERK”. Besides, in data set [3], the “phosphorylated p53 (on s15)” value was “increases in phosphorylated p53” and the γ-H2AX result is “increases”. For the same substance, in data set [4], the LAMP1 levels entry was “increased levels”. In data set [5], the “PARP1 mRNA” value is on record as “significant repression”. Also, in data set [6] (p53 null U87 KO #4 cells), the “PUMA and MDM2 mRNA” value was “lower levels”; the “p21 mRNA” value was “did not result in a significant change”. Also, the “PARP1 mRNA” value in data set [6] (p53 null U87 cells) was “repression was also observed”. The mitochondrial network organization entry in data set [7] was “mitochondrial network disorganization”. Also, in data set [8], the RAC1 protein levels entry is on record as “elevated”, the RAS protein levels result is “elevated” and the “phosphorylation of ERK1/2” value was “increased phosphorylation”.
